15 molecules from patent publication US10058550B2, “Methods of treating heart failure” (priority 2015, dated 2018) can be followed below.

The assay deals with human APJ receptor (Homo sapiens (Human), UniProt P35414). The assay can be described thus: biochemical. The assay is classed as biochemical. As to conditions: read-out: Activity hAPJ SPA EC50 IP. Put shortly:
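Agonist-stimulated [35S]GTPγS (0.2 nM) binding was read by SPA after 90 min at room temperature. Buffer: 20 mM HEPES pH 7.5 with 5 mM MgCl2, 200 mM NaCl, 3 μM GDP, 0.1% BSA; membranes were from a stable human APJ CHO line. EC50 values are averages of independent runs, fitted by non-linear regression.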

Each structure is given as a SMILES string.

Chain of human APJ receptor (P35414 whole entry): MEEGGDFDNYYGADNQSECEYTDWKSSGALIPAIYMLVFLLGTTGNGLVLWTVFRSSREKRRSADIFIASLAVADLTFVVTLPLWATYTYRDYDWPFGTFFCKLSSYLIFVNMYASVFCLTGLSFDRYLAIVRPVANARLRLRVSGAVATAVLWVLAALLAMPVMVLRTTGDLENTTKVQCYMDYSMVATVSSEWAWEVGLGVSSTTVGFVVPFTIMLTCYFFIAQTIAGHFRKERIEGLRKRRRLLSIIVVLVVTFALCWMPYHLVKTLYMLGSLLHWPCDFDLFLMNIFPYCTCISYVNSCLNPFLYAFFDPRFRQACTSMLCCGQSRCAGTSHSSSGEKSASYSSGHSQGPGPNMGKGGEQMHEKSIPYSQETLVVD

Regarding `COc1cccc(OC)c1-n1c(NS(=O)(=O)[C@@H](C)[C@@H](OCCO)c2ncc(C)cn2)nnc1-c1cncc(C)c1` (single isomer, unassigned) [Example 408.0, (1S,2S)—N-(4-(2,6-dimethoxyphenyl)-5-(5-methylpyridin-3-yl)-4H-1,2,4-triazol-3-yl)-1-(2-hydroxyethoxy)-1-(5-methylpyrimidin-2-yl)propane-2-sulfonamide or (1R,2R)—N-(4-(2,6-dimethoxyphenyl)-5-(5-methylpyridin-3-yl)-4H-1,2,4-triazol-3-yl)-1-(2-hydroxyethoxy)-1-(5-methylpyrimidin-2-yl)propane-2-sulfonamide], the EC50 amounted to 0.88 nM.
For the molecule `COc1cccc(OC)c1-n1c(NS(=O)(=O)[C@@H](C)[C@@H](OCCO)c2ncc(C)cn2)nnc1-c1cncc(C)c1` (single isomer, unassigned) [Example 409.0, (1S,2S)—N-(4-(2,6-dimethoxyphenyl)-5-(5-methylpyridin-3-yl)-4H-1,2,4-triazol-3-yl)-1-(2-hydroxyethoxy)-1-(5-methylpyrimidin-2-yl)propane-2-sulfonamide or (1R,2R)—N-(4-(2,6-dimethoxyphenyl)-5-(5-methylpyridin-3-yl)-4H-1,2,4-triazol-3-yl)-1-(2-hydroxyethoxy)-1-(5-methylpyrimidin-2-yl)propane-2-sulfonamide], the EC50 came out at 29 nM.
Take `COc1cccc(-c2nnc(NS(=O)(=O)[C@H](C)[C@@H](OCCO)c3ncc(C)cn3)n2-c2c(OC)cccc2OC)n1` (single isomer, unassigned) [Example 415.0, (1S,2R)—N-(4-(2,6-dimethoxyphenyl)-5-(6-methoxypyridin-2-yl)-4H-1,2,4-triazol-3-yl)-1-(2-hydroxyethoxy)-1-(5-methylpyrimidin-2-yl)propane-2-sulfonamide or (1R,2S)—N-(4-(2,6-dimethoxyphenyl)-5-(6-methoxypyridin-2-yl)-4H-1,2,4-triazol-3-yl)-1-(2-hydroxyethoxy)-1-(5-methylpyrimidin-2-yl)propane-2-sulfonamide]: the EC50 turned out to be 8.9 nM.
In the case of `COc1cccc(-c2nnc(NS(=O)(=O)[C@H](C)[C@@H](OCCO)c3ncc(C)cn3)n2-c2c(OC)cccc2OC)n1` (single isomer, unassigned) [Example 416.0, (1S,2R)—N-(4-(2,6-dimethoxyphenyl)-5-(6-methoxypyridin-2-yl)-4H-1,2,4-triazol-3-yl)-1-(2-hydroxyethoxy)-1-(5-methylpyrimidin-2-yl)propane-2-sulfonamide or (1R,2S)—N-(4-(2,6-dimethoxyphenyl)-5-(6-methoxypyridin-2-yl)-4H-1,2,4-triazol-3-yl)-1-(2-hydroxyethoxy)-1-(5-methylpyrimidin-2-yl)propane-2-sulfonamide] it was 0.26 nM.
Consider `COc1cccc(-c2nnc(NS(=O)(=O)[C@@H](C)[C@H](O)C(C)(C)C)n2-c2c(OC)cccc2OC)n1` (single isomer, unassigned) [Example 434.0, (2S,3R)—N-(4-(2,6-dimethoxyphenyl)-5-(6-methoxy-2-pyridinyl)-4H-1,2,4-triazol-3-yl)-3-hydroxy-4,4-dimethyl-2-pentanesulfonamide or (2R,3S)—N-(4-(2,6-dimethoxyphenyl)-5-(6-methoxy-2-pyridinyl)-4H-1,2,4-triazol-3-yl)-3-hydroxy-4,4-dimethyl-2-pentanesulfonamide], for which the EC50 is 120 nM.
As for `COc1cccc(-c2nnc(NS(=O)(=O)[C@@H](C)[C@@H](O)C(C)(C)C)n2-c2c(OC)cccc2OC)n1` (single isomer, unassigned) [Example 435.0, (2S,3S)—N-(4-(2,6-dimethoxyphenyl)-5-(6-methoxy-2-pyridinyl)-4H-1,2,4-triazol-3-yl)-3-hydroxy-4,4-dimethyl-2-pentanesulfonamide or (2R,3R)—N-(4-(2,6-dimethoxyphenyl)-5-(6-methoxy-2-pyridinyl)-4H-1,2,4-triazol-3-yl)-3-hydroxy-4,4-dimethyl-2-pentanesulfonamide], the figure is 24 nM.
As to `COc1cccc(-c2nnc(NS(=O)(=O)[C@@H](C)[C@@H](O)C(C)(C)C)n2-c2c(OC)cccc2OC)n1` (single isomer, unassigned) [Example 436.0, (2S,3S)—N-(4-(2,6-dimethoxyphenyl)-5-(6-methoxy-2-pyridinyl)-4H-1,2,4-triazol-3-yl)-3-hydroxy-4,4-dimethyl-2-pentanesulfonamide or (2R,3R)—N-(4-(2,6-dimethoxyphenyl)-5-(6-methoxy-2-pyridinyl)-4H-1,2,4-triazol-3-yl)-3-hydroxy-4,4-dimethyl-2-pentanesulfonamide], the EC50 was found to be 100 nM.
In the case of `COc1cccc(-c2nnc(NS(=O)(=O)[C@@H](C)[C@H](O)C(C)(C)C)n2-c2c(OC)cccc2OC)n1` (single isomer, unassigned) [Example 437.0, (2S,3R)—N-(4-(2,6-dimethoxyphenyl)-5-(6-methoxy-2-pyridinyl)-4H-1,2,4-triazol-3-yl)-3-hydroxy-4,4-dimethyl-2-pentanesulfonamide or (2R,3S)—N-(4-(2,6-dimethoxyphenyl)-5-(6-methoxy-2-pyridinyl)-4H-1,2,4-triazol-3-yl)-3-hydroxy-4,4-dimethyl-2-pentanesulfonamide] it was 31 nM.
As for `COc1cccc(-c2nnc(NS(=O)(=O)[C@@H](C)[C@H](O)C3CC3)n2-c2c(OC)cccc2OC)n1` (single isomer, unassigned) [Example 439.0, (1R,2S)-1-cyclopropyl-N-(4-(2,6-dimethoxyphenyl)-5-(6-methoxy-2-pyridinyl)-4H-1,2,4-triazol-3-yl)-1-hydroxy-2-propanesulfonamide or (1S,2R)-1-cyclopropyl-N-(4-(2,6-dimethoxyphenyl)-5-(6-methoxy-2-pyridinyl)-4H-1,2,4-triazol-3-yl)-1-hydroxy-2-propanesulfonamide], the figure is 110 nM; as for `COc1cccc(OC)c1-n1c(NS(=O)(=O)C[C@H](O)c2ccc(Cl)cc2S(C)(=O)=O)nnc1-c1cncc(C)c1` (single isomer, unassigned) [Example 458.0, (2R)-2-(4-chloro-2-(methylsulfonyl)phenyl)-N-(4-(2,6-dimethoxyphenyl)-5-(5-methyl-3-pyridinyl)-4H-1,2,4-triazol-3-yl)-2-hydroxyethanesulfonamide or (2S)-2-(4-chloro-2-(methylsulfonyl)phenyl)-N-(4-(2,6-dimethoxyphenyl)-5-(5-methyl-3-pyridinyl)-4H-1,2,4-triazol-3-yl)-2-hydroxyethanesulfonamide], 0.16 nM; as for `COc1cccc(-c2nnc(NS(=O)(=O)[C@@H](C)[C@H](OC)c3ccc(C#N)cc3C#N)n2-c2c(OC)cccc2OC)n1` (single isomer, unassigned) [Example 474.0, (1R,2S)-1-(2,4-dicyanophenyl)-N-(4-(2,6-dimethoxyphenyl)-5-(6-methoxy-2-pyridinyl)-4H-1,2,4-triazol-3-yl)-1-methoxy-2-propanesulfonamide or (1S,2R)-1-(2,4-dicyanophenyl)-N-(4-(2,6-dimethoxyphenyl)-5-(6-methoxy-2-pyridinyl)-4H-1,2,4-triazol-3-yl)-1-methoxy-2-propanesulfonamide], 0.35 nM.
In the case of `COc1cccc(-c2nnc(NS(=O)(=O)[C@H](C)[C@H](OC)c3ccc(C#N)cc3C#N)n2-c2c(OC)cccc2OC)n1` (single isomer, unassigned) [Example 476.0, (1R,2R)-1-(2,4-dicyanophenyl)-N-(4-(2,6-dimethoxyphenyl)-5-(6-methoxy-2-pyridinyl)-4H-1,2,4-triazol-3-yl)-1-methoxy-2-propanesulfonamide or (1S,2S)-1-(2,4-dicyanophenyl)-N-(4-(2,6-dimethoxyphenyl)-5-(6-methoxy-2-pyridinyl)-4H-1,2,4-triazol-3-yl)-1-methoxy-2-propanesulfonamide] it was 0.55 nM; in that of `COc1cccc(-c2nnc(NS(=O)(=O)C[C@@H](O)c3ccc(C#N)cc3S(C)(=O)=O)n2-c2c(OC)cccc2OC)n1` (single isomer, unassigned) [Example 482.0, (2S)-2-(4-cyano-2-(methylsulfonyl)phenyl)-N-(4-(2,6-dimethoxyphenyl)-5-(6-methoxy-2-pyridinyl)-4H-1,2,4-triazol-3-yl)-2-hydroxyethanesulfonamide or (2R)-2-(4-cyano-2-(methylsulfonyl)phenyl)-N-(4-(2,6-dimethoxyphenyl)-5-(6-methoxy-2-pyridinyl)-4H-1,2,4-triazol-3-yl)-2-hydroxyethanesulfonamide], 0.2 nM; in that of `COc1cccc(-c2nnc(NS(=O)(=O)C[C@H](OC)c3ccc(C#N)cc3S(C)(=O)=O)n2-c2c(OC)cccc2OC)n1` (single isomer, unassigned) [Example 485.0, (2R)-2-(4-cyano-2-(methylsulfonyl)phenyl)-N-(4-(2,6-dimethoxyphenyl)-5-(6-methoxy-2-pyridinyl)-4H-1,2,4-triazol-3-yl)-2-methoxyethanesulfonamide or (2S)-2-(4-cyano-2-(methylsulfonyl)phenyl)-N-(4-(2,6-dimethoxyphenyl)-5-(6-methoxy-2-pyridinyl)-4H-1,2,4-triazol-3-yl)-2-methoxyethanesulfonamide], 0.098 nM.
For `COc1cccc(-c2nnc(NS(=O)(=O)C[C@H](OC)c3ccc(C#N)cc3S(C)(=O)=O)n2-c2c(OC)cccc2OC)n1` (single isomer, unassigned) [Example 486.0, (2R)-2-(4-cyano-2-(methylsulfonyl)phenyl)-N-(4-(2,6-dimethoxyphenyl)-5-(6-methoxy-2-pyridinyl)-4H-1,2,4-triazol-3-yl)-2-methoxyethanesulfonamide or (2S)-2-(4-cyano-2-(methylsulfonyl)phenyl)-N-(4-(2,6-dimethoxyphenyl)-5-(6-methoxy-2-pyridinyl)-4H-1,2,4-triazol-3-yl)-2-methoxyethanesulfonamide], the EC50 is 0.073 nM.
